Test results taken from ChEMBL document CHEMBL3797052 (Eur J Med Chem, 2016).

Columns and labels:
[1] = Antiproliferative activity against human RXF393 cells assessed as growth inhibition after 48 hrs by sulforhodamine B assay; assay type: functional; conditions: RXF 393, 48 h
786-0 [2] = assay: Antiproliferative activity against human 786-0 cells assessed as growth inhibition after 48 hrs by sulforhodamine B assay; assay type: functional; conditions: 786-0, 48 h
NCI-H23 [3] = assay: Antiproliferative activity against human NCI-H23 cells assessed as cell growth at 10^-7 M after 48 hrs by sulforhodamine B assay; assay type: functional; conditions: NCI-H23, 48 h, read-out: Activity
[4] = Antiproliferative activity against human HCT116 cells assessed as cell growth at 10^-7 M after 48 hrs by sulforhodamine B assay; assay type: functional; conditions: HCT-116, 48 h, read-out: Activity
SK-MEL-28 = assay: Antiproliferative activity against human SK-MEL-28 cells assessed as growth inhibition after 48 hrs by sulforhodamine B assay; assay type: functional; conditions: SK-MEL-28, 48 h
Malme-3M = assay: Antiproliferative activity against human MALME-3M cells assessed as cell growth at 10^-7 M after 48 hrs by sulforhodamine B assay; assay type: functional; conditions: read-out: Activity
SK-MEL-5 [5] = assay: Antiproliferative activity against human SK-MEL-5 cells assessed as cell growth at 10^-7 M after 48 hrs by sulforhodamine B assay; assay type: functional; conditions: SK-MEL-5, 48 h, read-out: Activity
[6] = Antiproliferative activity against human IGROV1 cells assessed as cell growth at 10^-7 M after 48 hrs by sulforhodamine B assay; assay type: functional; conditions: IGROV-1, 48 h, read-out: Activity
[7] = Antiproliferative activity against human SF539 cells assessed as growth inhibition after 48 hrs by sulforhodamine B assay; assay type: functional; conditions: SF-539, 48 h
[8] = Antiproliferative activity against human SF268 cells assessed as growth inhibition after 48 hrs by sulforhodamine B assay; assay type: functional; conditions: SF-268, 48 h
[9] = Antiproliferative activity against human HOP62 cells assessed as growth inhibition after 48 hrs by sulforhodamine B assay; assay type: functional; conditions: HOP-62, 48 h
EKVX = assay: Antiproliferative activity against human EKVX cells assessed as growth inhibition after 48 hrs by sulforhodamine B assay; assay type: functional
[10] = Antiproliferative activity against human RPMI8226 cells assessed as growth inhibition after 48 hrs by sulforhodamine B assay; assay type: functional; conditions: RPMI-8226, 48 h
MDA-MB-231 = assay: Antiproliferative activity against human MDA-MB-231 cells assessed as growth inhibition after 48 hrs by sulforhodamine B assay; assay type: functional; conditions: MDA-MB-231, 48 h
[11] = Antiproliferative activity against human Hs 578T cells assessed as growth inhibition after 48 hrs by sulforhodamine B assay; assay type: functional
CYP2C9 = CYP2C9 (Homo sapiens, UniProt P11712); assay: Inhibition of recombinant human CYP2C9 assessed as remaining enzyme activity using CYP2C9 green as substrate at 10 uM after 5 mins in presence of NADP by fluorescence plate reader analysis; assay type: ADME; conditions: recombinant human CYP2C9, probe CYP2C9 green, read-out: Activity
NCI-H322M [12] = assay: Antiproliferative activity against human NCI-H322M cells assessed as cell growth at 10^-8 M after 48 hrs by sulforhodamine B assay; assay type: functional; conditions: read-out: Activity
[13] = Antiproliferative activity against human SF295 cells assessed as cell growth at 10^-8 M after 48 hrs by sulforhodamine B assay; assay type: functional; conditions: SF-295, 48 h, read-out: Activity
[14] = Antiproliferative activity against human SNB19 cells assessed as cell growth at 10^-8 M after 48 hrs by sulforhodamine B assay; assay type: functional; conditions: SNB-19, 48 h, read-out: Activity
[15] = Antiproliferative activity against human HL-60(TB) cells assessed as cell growth at 10^-6 M after 48 hrs by sulforhodamine B assay; assay type: functional; conditions: HL-60, 48 h, read-out: Activity
NCI-H23 [16] = assay: Antiproliferative activity against human NCI-H23 cells assessed as cell growth at 10^-6 M after 48 hrs by sulforhodamine B assay; assay type: functional; conditions: NCI-H23, 48 h, read-out: Activity
[17] = Antiproliferative activity against human SW620 cells assessed as cell growth at 10^-6 M after 48 hrs by sulforhodamine B assay; assay type: functional; conditions: SW-620, 48 h, read-out: Activity
[18] = Antiproliferative activity against human SNB19 cells assessed as cell growth at 10^-6 M after 48 hrs by sulforhodamine B assay; assay type: functional; conditions: SNB-19, 48 h, read-out: Activity
[19] = Antiproliferative activity against human RPMI8226 cells assessed as cell growth at 10^-4 M after 48 hrs by sulforhodamine B assay; assay type: functional; conditions: RPMI-8226, 48 h, read-out: Activity
NCI-H322M [20] = assay: Antiproliferative activity against human NCI-H322M cells assessed as cell growth at 10^-4 M after 48 hrs by sulforhodamine B assay; assay type: functional; conditions: read-out: Activity
[21] = Antiproliferative activity against human HCT116 cells assessed as cell growth at 10^-4 M after 48 hrs by sulforhodamine B assay; assay type: functional; conditions: HCT-116, 48 h, read-out: Activity
[22] = Antiproliferative activity against human SF268 cells assessed as cell growth at 10^-4 M after 48 hrs by sulforhodamine B assay; assay type: functional; conditions: SF-268, 48 h, read-out: Activity
[23] = Antiproliferative activity against human SNB75 cells assessed as cell growth at 10^-4 M after 48 hrs by sulforhodamine B assay; assay type: functional; conditions: SNB-75, 48 h, read-out: Activity
[24] = Antiproliferative activity against human SKOV3 cells assessed as cell growth at 10^-8 M after 48 hrs by sulforhodamine B assay; assay type: functional; conditions: SK-OV-3, 48 h, read-out: Activity
A498 = assay: Antiproliferative activity against human A498 cells assessed as cell growth at 10^-8 M after 48 hrs by sulforhodamine B assay; assay type: functional; conditions: A498, 48 h, read-out: Activity
SK-MEL-5 [25] = assay: Antiproliferative activity against human SK-MEL-5 cells assessed as cell growth at 10^-6 M after 48 hrs by sulforhodamine B assay; assay type: functional; conditions: SK-MEL-5, 48 h, read-out: Activity
[26] = Antiproliferative activity against human OVCAR3 cells assessed as cell growth at 10^-6 M after 48 hrs by sulforhodamine B assay; assay type: functional; conditions: OVCAR-3, 48 h, read-out: Activity
MDA-MB-435 = assay: Antiproliferative activity against human MDA-MB-435 cells assessed as cell growth at 10^-4 M after 48 hrs by sulforhodamine B assay; assay type: functional; conditions: MDA-MB-435, 48 h, read-out: Activity
786-0 [27] = assay: Antiproliferative activity against human 786-0 cells assessed as cell growth at […] after 48 hrs by sulforhodamine B assay; assay type: functional; conditions: 786-0, 48 h, read-out: Activity
[28] = Antiproliferative activity against human TK10 cells assessed as cell growth at 10^-4 M after 48 hrs by sulforhodamine B assay; assay type: functional; conditions: TK-10, 48 h, read-out: Activity
[29] = read-out: LC50 (the source's name)

Chain of CYP2C9 (P11712 whole entry): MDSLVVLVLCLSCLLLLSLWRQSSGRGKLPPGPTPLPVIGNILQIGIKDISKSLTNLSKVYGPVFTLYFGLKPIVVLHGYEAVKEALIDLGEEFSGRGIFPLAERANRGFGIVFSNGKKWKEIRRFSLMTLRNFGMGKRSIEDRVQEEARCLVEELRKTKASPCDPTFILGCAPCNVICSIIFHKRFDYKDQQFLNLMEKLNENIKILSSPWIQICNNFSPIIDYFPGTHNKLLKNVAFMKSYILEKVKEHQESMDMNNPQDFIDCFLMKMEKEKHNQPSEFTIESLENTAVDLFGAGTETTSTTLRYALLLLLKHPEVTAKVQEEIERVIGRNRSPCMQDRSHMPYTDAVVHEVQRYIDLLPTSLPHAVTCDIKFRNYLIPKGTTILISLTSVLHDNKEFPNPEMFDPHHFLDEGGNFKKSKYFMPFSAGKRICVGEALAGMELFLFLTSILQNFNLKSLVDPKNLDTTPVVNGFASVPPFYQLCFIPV

Compound: CNC(=O)c1cc(Oc2ccc3nc(NC(=O)Nc4ccc(Cl)c(C(F)(F)F)c4)sc3c2)ccn1
- GI50 [1]: 1.93 µM
- TGI [1]: 4.57 µM
- CC50 [1, 29]: 13.9 µM
- GI50 (786-0 [2]): 1.79 µM
- LC50 (786-0 [2]): 6.48 µM
- TGI (786-0 [2]): 3.4 µM
- growth at 0.1 µM (NCI-H23 [3]): 97%
- growth at 0.1 µM [4]: 99%
- GI50 (SK-MEL-28): 1.56 µM
- growth at 0.1 µM (Malme-3M): 98%
- growth at 0.1 µM (SK-MEL-5 [5]): 95%
- growth at 0.1 µM [6]: 97%
- GI50 [7]: 1.78 µM
- TGI [7]: 3.9 µM
- GI50 [8]: 2.34 µM
- LC50 (concentration killing 50% of cells) [8]: > 100 µM
- TGI [8]: 16.4 µM
- GI50 [9]: 1.94 µM
- LC50 [9]: > 100 µM
- TGI [9]: 4.74 µM
- GI50 (EKVX): 1.75 µM
- TGI (EKVX): 4.18 µM
- GI50 [10]: 2.22 µM
- LC50 [10]: > 100 µM
- GI50 (MDA-MB-231): 1.43 µM
- TGI (MDA-MB-231): 4.29 µM
- CC50 (MDA-MB-231; [29]): 59.2 µM
- GI50 [11]: 1.53 µM
- TGI [11]: 6.27 µM
- CC50 [11, 29]: > 100 µM
- activity at 5 min, 10 µM (CYP2C9): 98.5%
- growth at 0.01 µM (NCI-H322M [12]): 101%
- growth at 0.01 µM [13]: 95%
- growth at 0.01 µM [14]: 101%
- growth at 1 µM [15]: 96%
- growth at 1 µM (NCI-H23 [16]): 88%
- growth at 1 µM [17]: 91%
- growth at 1 µM [18]: 85%
- growth at 100 µM [19]: 46%
- growth at 100 µM (NCI-H322M [20]): 27%
- growth at 100 µM [21]: -19%
- growth at 100 µM [22]: -5%
- growth at 100 µM [23]: -80%
- growth at 0.01 µM [24]: 97%
- growth at 0.01 µM (A498): 95%
- growth at 1 µM (SK-MEL-5 [25]): 87%
- growth at 1 µM [26]: 108%
- growth at 100 µM (MDA-MB-435): 40%
- growth at 100 µM (786-0 [27]): -77%
- growth at 100 µM [28]: -62%
